Results: patent US20200068890A1 (Person to Whom the Inventor is Obligated to Assign, priority 2017, published 2020)
Several values for one entry are separate records, joined by “and”; a condition that tells them apart may be missing. Equal entries are not always repeated. Where two headings read alike, the source gives them in different places.

Key:
[1] = tested on: Acinetobacter baumannii 17978; assay: Broth microdilution MIC; type: cell-based
Method: (§1) Assays were carried out by a broth microdilution method using a 96-well plate according to guidelines defined by the European Committee on Antimicrobial Susceptibility Testing as described here. Overnight cultures of strains were grown in tryptic soy broth (TSB) at 37° C. The overnight cultures were diluted to a concentration of 1×10^6 bacteria/ml (OD600=0.01) in TSB media. To each well on 96 well plates, 100 μl of bacterially infected media at a concentration of 1×10^6/ml and compounds at various concentrations were added. An uninfected control (i.e. no bacteria) was also included. The plates were incubated at 37° C. wrapped in parafilm for 20 hrs. The growth was assessed by measuring the absorbance at 600 nm. The minimum inhibitory concentration (MIC) was determined to be the lowest concentration of compound that inhibits visible bacterial growth.

[2] = tested on: Acinetobacter baumannii AYE; assay: Broth microdilution MIC; type: cell-based
Method: as §1

EMRSA-15 = assay: Broth microdilution MIC; type: cell-based
Method: as §1

EMRSA-16 = assay: Broth microdilution MIC; type: cell-based
Method: as §1

[3] = tested on: Enterococcus faecalis 12201; assay: Broth microdilution MIC; type: cell-based
Method: as §1

[4] = tested on: Enterococcus faecalis 775; assay: Broth microdilution MIC; type: cell-based
Method: as §1

[5] = tested on: Enterococcus faecium 12204; assay: Broth microdilution MIC; type: cell-based
Method: as §1

[6] = tested on: Escherichia coli NCTC12923; assay: Broth microdilution MIC; type: cell-based
Method: as §1

[7] = tested on: Klebsiella pneumoniae 13368; assay: Broth microdilution MIC; type: cell-based
Method: as §1

Klebsiella pneumoniae M6 = assay: Broth microdilution MIC; type: cell-based
Method: as §1

MSSA 9144 = assay: Broth microdilution MIC; type: cell-based; details: Staphylococcus aureus
Method: as §1

[8] = tested on: Pseudomonas aeruginosa 13437; assay: Broth microdilution MIC; type: cell-based
Method: as §1

[9] = tested on: Pseudomonas aeruginosa PA01; assay: Broth microdilution MIC; type: cell-based
Method: as §1

A. thaliana seedlings = assay: In planta seedling development and root length on GM/MS media; type: in vivo; details: for Normalised root / Root Length: individual plants 1-20
Method: Gamborg modified/Murashige Skoog (GM/MS) media and soil were prepared as according to Table 6.
A. thaliana seeds were sterilised including a 15 min wash step in 10% (v/v) commercial bleach without the addition of detergents. All plants were grown in a controlled environment room (CER) at 22±5° C. with 16 hrs: 8 hrs light: dark, 50-60% humidity under cool-white fluorescent light. Plants grown on soil were regularly watered and relocated within the CER.
Basta was employed as a positive control at a final recommended concentration of 10 μg/mL (50 μM). Negative controls included 0% (v/v) DMSO (H2O) and 1% (v/v) DMSO (vehicle). Media was poured into 100 mL plates and allowed to set before adding 20 sterilised seeds per plate. Seeds were then stratified at 4° C. for 72 hrs in a dark room prior to relocation into a CER.
The resulting growth plates were monitored daily and allowed to grow in an upright position for up to 14 days post stratification to determine the average root length using ImageJ analysis. Experiments were carried out in triplicates. Results were statistically validated using t-tests employing GraphPad Prism.

COc1ccc(/C=C2\SC(=O)N(CC(=O)O)C2=O)cc1 [Compound 5, (Z)-2-(5-(4-Methoxybenzylidene)-2,4-dioxothiazolidin-3-yl)acetic Acid]
MIC ([1]; Acinetobacter baumannii 17978, replicate 1, read-out: MIC #1): > 64 µg/mL
MIC ([1]; Acinetobacter baumannii 17978, replicate 2, read-out: MIC #2): > 64 µg/mL
MIC ([1]; Acinetobacter baumannii 17978, replicate 3, read-out: MIC #3): > 64 µg/mL
MIC ([2]; replicate 1, read-out: MIC #1): > 64 µg/mL
MIC ([2]; replicate 2, read-out: MIC #2): > 64 µg/mL
MIC ([2]; replicate 3, read-out: MIC #3): > 64 µg/mL
MIC (EMRSA-15; EMRSA-15, replicate 1, read-out: MIC #1): > 64 µg/mL
MIC (EMRSA-15; EMRSA-15, replicate 2, read-out: MIC #2): > 64 µg/mL
MIC (EMRSA-15; EMRSA-15, replicate 3, read-out: MIC #3): > 64 µg/mL
MIC (EMRSA-16; EMRSA-16, replicate 1, read-out: MIC #1): > 64 µg/mL
MIC (EMRSA-16; EMRSA-16, replicate 2, read-out: MIC #2): > 64 µg/mL
MIC (EMRSA-16; EMRSA-16, replicate 3, read-out: MIC #3): > 64 µg/mL
MIC ([3]; Enterococcus faecalis 12201, replicate 1, read-out: MIC #1): > 64 µg/mL
MIC ([3]; Enterococcus faecalis 12201, replicate 2, read-out: MIC #2): > 64 µg/mL
MIC ([3]; Enterococcus faecalis 12201, replicate 3, read-out: MIC #3): > 64 µg/mL
MIC ([4]; Enterococcus faecalis 775, replicate 1, read-out: MIC #1): > 64 µg/mL
MIC ([4]; Enterococcus faecalis 775, replicate 2, read-out: MIC #2): > 64 µg/mL
MIC ([4]; Enterococcus faecalis 775, replicate 3, read-out: MIC #3): > 64 µg/mL
MIC ([5]; Enterococcus faecium 12204, replicate 1, read-out: MIC #1): > 64 µg/mL
MIC ([5]; Enterococcus faecium 12204, replicate 2, read-out: MIC #2): > 64 µg/mL
MIC ([5]; Enterococcus faecium 12204, replicate 3, read-out: MIC #3): > 64 µg/mL
MIC ([6]; Escherichia coli NCTC12923, replicate 1, read-out: MIC #1): > 64 µg/mL
MIC ([6]; Escherichia coli NCTC12923, replicate 2, read-out: MIC #2): > 64 µg/mL
MIC ([6]; Escherichia coli NCTC12923, replicate 3, read-out: MIC #3): > 64 µg/mL
MIC ([7]; Klebsiella pneumoniae 13368, replicate 1, read-out: MIC #1): > 64 µg/mL
MIC ([7]; Klebsiella pneumoniae 13368, replicate 2, read-out: MIC #2): > 64 µg/mL
MIC ([7]; Klebsiella pneumoniae 13368, replicate 3, read-out: MIC #3): > 64 µg/mL
MIC (Klebsiella pneumoniae M6; Klebsiella pneumoniae M6, replicate 1, read-out: MIC #1): > 64 µg/mL
MIC (Klebsiella pneumoniae M6; Klebsiella pneumoniae M6, replicate 2, read-out: MIC #2): > 64 µg/mL
MIC (Klebsiella pneumoniae M6; Klebsiella pneumoniae M6, replicate 3, read-out: MIC #3): > 64 µg/mL
MIC (MSSA 9144; MSSA 9144, replicate 1, read-out: MIC #1): > 64 µg/mL
MIC (MSSA 9144; MSSA 9144, replicate 2, read-out: MIC #2): > 64 µg/mL
MIC (MSSA 9144; MSSA 9144, replicate 3, read-out: MIC #3): > 64 µg/mL
MIC ([8]; Pseudomonas aeruginosa 13437, replicate 1, read-out: MIC #1): > 64 µg/mL
MIC ([8]; Pseudomonas aeruginosa 13437, replicate 2, read-out: MIC #2): > 64 µg/mL
MIC ([8]; Pseudomonas aeruginosa 13437, replicate 3, read-out: MIC #3): > 64 µg/mL
MIC ([9]; Pseudomonas aeruginosa PA01, replicate 1, read-out: MIC #1): > 64 µg/mL
MIC ([9]; Pseudomonas aeruginosa PA01, replicate 2, read-out: MIC #2): > 64 µg/mL
MIC ([9]; Pseudomonas aeruginosa PA01, replicate 3, read-out: MIC #3): > 64 µg/mL
Normalised root (A. thaliana seedlings; 15.6 μM in GM/MS media): 82.76 and 96.69 and 73.74 and 70.27 and 71.53 and 139.9 and 115.3 and 146.5 and 77.53 and 88.03 and 73.65 and 65.55 and 78.22 and 74.81 and 104.1 and 65.25 and 3.437 and 81.45 and 65.88 and 72.75
Root Length (A. thaliana seedlings; 15.6 μM in GM/MS media): 2.769 cm and 3.235 cm and 2.467 cm and 2.351 cm and 2.393 cm and 4.682 cm and 3.856 cm and 4.902 cm and 2.594 cm and 2.945 cm and 2.464 cm and 2.193 cm and 2.617 cm and 2.503 cm and 3.482 cm and 2.183 cm and 0.115 cm and 2.725 cm and 2.204 cm and 2.434 cm
Normalised root (A. thaliana seedlings; 31.3 μM in GM/MS media): 88.38 and 1.793 and 71.56 and 59.48 and 79.48 and 5.948
Root Length (A. thaliana seedlings; 31.3 μM in GM/MS media): 2.957 cm and 0.06 cm and 2.394 cm and 1.99 cm and 2.659 cm and 0.199 cm
Normalised root (A. thaliana seedlings; 62.5 μM in GM/MS media): 7.413 and 36.02 and 1.315 and 72.21 and 57.81 and 43.67 and 43.88 and 58.91 and 47.85 and 54.64 and 35.81 and 30.88 and 2.78 and 15.18 and 44.24 and 60.59
Root Length (A. thaliana seedlings; 62.5 μM in GM/MS media): 0.248 cm and 1.205 cm and 0.044 cm and 2.416 cm and 1.934 cm and 1.461 cm and 1.468 cm and 1.971 cm and 1.601 cm and 1.828 cm and 1.198 cm and 1.033 cm and 0.093 cm and 0.508 cm and 1.48 cm and 2.027 cm
Normalised root (A. thaliana seedlings; 125 μM in GM/MS media): 17.75 and 24.42 and 18.71 and 21.94 and 21.31 and 20.59 and 21.58 and 22.78 and 6.905 and 15.15 and 6.636 and 15.69 and 16.44 (2×) and 2.062 and 14.11 and 1.016 and 19.97 and 13.33 and 0.8668
Root Length (A. thaliana seedlings; 125 μM in GM/MS media): 0.594 cm and 0.817 cm and 0.626 cm and 0.734 cm and 0.713 cm and 0.689 cm and 0.722 cm and 0.762 cm and 0.231 cm and 0.507 cm and 0.222 cm and 0.525 cm and 0.55 cm (2×) and 0.069 cm and 0.472 cm and 0.034 cm and 0.668 cm and 0.446 cm and 0.029 cm
Normalised root (A. thaliana seedlings; 250 μM in GM/MS media): 3.019 and 3.856 and 2.63 and 2.989 (2×) and 4.693 and 3.049 and 0.3886 and 5.021 and 2.541 and 2.451 and 12.37 and 5.051 and 4.812 and 3.497 and 2.361 and 1.225 and 2.272 and 0.8668 and 0.4185
Root Length (A. thaliana seedlings; 250 μM in GM/MS media): 0.101 cm and 0.129 cm and 0.088 cm and 0.1 cm (2×) and 0.157 cm and 0.102 cm and 0.013 cm and 0.168 cm and 0.085 cm and 0.082 cm and 0.414 cm and 0.169 cm and 0.161 cm and 0.117 cm and 0.079 cm and 0.041 cm and 0.076 cm and 0.029 cm and 0.014 cm
Normalised root (A. thaliana seedlings; 500 μM in GM/MS media): 0.807 and 0.9565 (3×) and 0.5978 and 2.72 and 0.4185 (2×) and 0.7472 and 0.9266 and 0.2391 and 0.3587 and 0.8668 and 1.375 and 1.315 and 3.348 and 1.853 and 0.9864
Root Length (A. thaliana seedlings; 500 μM in GM/MS media): 0.027 cm and 0.032 cm (3×) and 0.02 cm and 0.091 cm and 0.014 cm (2×) and 0.025 cm and 0.031 cm and 0.008 cm and 0.012 cm and 0.029 cm and 0.046 cm and 0.044 cm and 0.112 cm and 0.062 cm and 0.033 cm
seedling development (A. thaliana seedlings; concentrations 125 μM and higher): did not develop past the point of hypocotyl formation
development and growth of A. thaliana (leaves) (A. thaliana seedlings; highest concentrations tested): lack of any chlorophyll containing leaves
